Columns and labels:
[1] = test system: partial meniscectomy/ACL transection rat model of surgical induced osteoarthritis and pain induced incapacitance; experiment: Weight bearing (incapacitance tester) in rat partial meniscectomy/ACL transection model, Example 5; type: in vivo
Description: (§1) Rats were allowed to acclimatize for 1 week, followed by assessment of their weight bearing preference using an incapacitance meter. Unilateral medical meniscectomy and anterior cruciate ligament ligation (MMX/ACLT) surgery was performed on the right knee of a subject rat. Weight bearing preference was tested before and after surgery. After 2 weeks, treatments with both intra-articular (1) and. intra-peritoneal (6) administrations of EPM-301 began in the EPM-301 group. Weight bearing preference was then assessed 4 and 7 days after the start of therapy.
(§2) Wistar Rats (HsdHan female rats 225-249 grams) were acquired from Envigo. The rats were evaluated using an incapacitance tester. They were tested pre-operation, one-week post-operation, two weeks post-operation, prior to injection, 4 and 7 days post injections.
EPM-301 was dissolved in a solution mixture of 1:1:18 EtOH:cremophor:seline to a final concentration of 3.5 mg/mL.
(§3) Intra-articular (i.a.) injection was carried out with 100 uL and intra-peritoneal (i.p.) injections were carried out with 150 uL. All were injected i.a. in the first day. EPM-301 was injected via i.p. administration on the first day, and for 5 additional days everyday via i.p. administration.
(§4) Student's t-test was performed at the last follow-up time to determine effect of the therapy as primary endpoint. The level of significance was 0.05 alpha. ANOVA was used to compare all time points, a post-hob analysis with the Scheffe all comparisons method was performed. Calculations were performed using the Analyze-it Excel add-on function.
The percentage weight bearing was calculated as the amount of weight born (in grams) on the right hind limb divided by the amount of weight born on the left hind limb. The ratio was expressed as percentage weight bearing. There were 6 animals in the EPM-301 treated group and 4 animals in the control group.

[2] = test system: partial meniscectomy/ACL transection rat model of surgical induced osteoarthritis; experiment: Morphological evaluation of the joint surfaces (osteophyte, gross surface, articular surface damage), Example 6; type: in vivo
Description: Morphological evaluation of the joint surfaces was performed using digital images of the joint. The parameters evaluated included percentage of articular surface damage of the proximal tibia calculated as the area of lesions divided by the total condylar surface area, gross surface score and osteophyte score as described (Yanagisawa et al. BMC Musculoskeletal Disorders. April 2016; 17:188).
The gross finding score in the articular cartilage was graded as follows: • (i) Grade 1—intact articular surface; • (ii) Grade 2—minimal osteophyte; • (iii) Grade 3—over spur formation; • (iv) Grade 4—width of erosion area 0 to 0.5 mm • (v) Grade 5—width of erosion area 0.5 to 1 mm. • (vi) Grade 6—width erosion area 1 to 1.5 mm • (vii) Grade 7—width of erosion area 1.5 to 2.0 mm • (viii) Grade 8—width of erosion area >2.0 mm
The osteophyte score was graded as follows: • (i) Grade 0—normal around the medial tibia; • (ii) Grade 1—osteophyte formation ⅓ around the medial tibia; • (iii) Grade 2—osteophyte formation halfway around the medial tibia; • (iv) Grade 3—osteophyte formation ⅔ around the medial tibia; • (v) Grade 4—osteophyte formation all around the medial tibia.

[3] = test system: partial meniscectomy/ACL transection rat model of surgical induced osteoarthritis and pain induced incapacitance; experiment: Weight bearing in rat meniscectomy model versus hyaluronate and corticosteroid, Example 6; type: in vivo
Description: as §1, with “EPM301” for “EPM-301”, “group. In the hyaluronate (HA) and corticosteroid (CS) groups, a single intra-articular injection was performed 2 weeks after model induction.” for “group.”
as §2
EPM-301 was dissolved in a solution mixture of 1:1:18 EtOH:cremophor:seline to a final concentration of 3.5 mg/mL. Hyaluronic acid (Arthrease, 1% sodium hyaluronate) and Dexamethasone (kem Pharma, Venus, 72, Pol. Ind. Colom II, 08228 Terrassa, Barcelona) were acquired.
as §3, §4
The percentage of weight bearing was calculated as the amount of weight born (in grams) on the right hind limb divided by the amount of weight born on the left hind limb. This ratio was expressed as percentage weight bearing. Prior to operation the Rt/Lt weight bearing in both groups was similar. There were 4 animals in the EPM-301 treated group and 8 animals in each of the HA and CS treated groups, with a total of 20 tested subjects.

[4] = test system: DSS induced acute colitis; experiment: DSS induced acute colitis mouse model, EPM-301 versus EPM-302, Example 13; type: in vivo, C57BL/6 mice
Description: Colitis was induced in 10 weeks old female C57BL/6 mice using dextran sodium sulphate (DSS). Mice were fed for 8 days with 2% (wt/vol) DSS in their drinking water. […] EPM-302 served as an additional control.
Weight loss was measured on days 1, 3, 5, 8, and 10.
Next, the mice were sacrificed and the length of their colons were measured.
Cytokine levels of IL-6 and TNFα were measured using ELISA kits (R&D Systems, USA). Colon TNFα (FIG. 19), blood IL-6 (FIG. 20), levels were lower in mice treated with CBDA-Me (EPM-301) as compared to EPM-302. Similarly, the MEICS score of EPM-301 treated subjects were also lower than EPM-302 treated subjects (FIG. 21). Representative photos of colonoscopy can be seen in FIG. 22A-22D.

[5] = immediately prior to injection, two weeks following model induction (baseline before treatment)

C=C(C)[C@@H]1CCC(C)=CC1c1c(O)cc(CCCCC)c(C(=O)OC)c1O (some centres unmarked) [EPM-301, cannabidiolic acid methyl ester]
Rt limb weight bearing ([1]; following injection, 3.5 mg/mL, 100 uL i.a. once plus 150 uL i.p. on 6 days, control group 59.0%): 106.7%
weight bearing, average value [1, 5]: 42.25%
Rt/Lt weight bearing, average value ([1]; prior to operation (baseline of the group, before treatment)): 139.6%
gross surface score ([2]; as compared to the HA and CS treated groups (FIG. 4)): improvement
percentage of articular surface damage ([2]; as compared to the HA and CS treated groups (FIG. 5)): less
osteophyte score ([2]; relative to the hyaluronic acid and the corticosteroid treatments (FIG. 3)): superiority
Rt limb weight bearing ([3]; following injections, EPM-301 i.a. once plus i.p. 6 days, HA and CS single i.a. injection): 99.1%
weight bearing [3, 5]: 56.6%
therapeutic effect ([4]; 10 mg/kg): not enough to induce a therapeutic effect
weight loss ([4]; 40 mg/kg by gavage, compared to CBD and EPM-302 (FIG. 17)): reduced
colon length ([4]; 40 mg/kg, versus EPM-302 and untreated mice, similar to prednisone (FIG. 18)): greater/longer
colon TNFα ([4]; as compared to EPM-302, ELISA (FIG. 19)): lower
blood IL-6 ([4]; as compared to EPM-302, ELISA (FIG. 20)): lower
MEICS score ([4]; versus EPM-302 treated subjects (FIG. 21)): lower

Reference: patent US12403114B2, “Cannabinoid acid ester compositions and uses thereof” (EPM (IP), INC., priority 2019, dated 2025)
